The results in this text go back to ChEMBL document CHEMBL3872286, “Identification and Mechanistic Evaluation of Hemozoin-Inhibiting Triarylimidazoles Active against Plasmodium falciparum” (ACS Med Chem Lett, 2017).

The source made the active and inactive calls. The calls are words filed in the database; no cut-off is given here. Bounds are passed on as bounds.

The IC50 is the concentration at which inhibition is half-maximal.

For series [1], the system named is Plasmodium falciparum. The experiment in a line: Antimalarial activity against chloroquine-sensitive asexual erythrocyte stage of Plasmodium falciparum NF54 infected in human type O+ erythrocytes assessed as decrease in DNA level by flow cytometry. It is filed as functional, cell-based. In general terms: A flow cytometer gives signals particle by particle.
Series [2] in a line: Inhibition of beta-hematin formation incubated for 5 to 6 hrs by NP40 detergent-mediated assay.
Series [3] can be described thus: Cytotoxicity against CHO cells assessed as decrease in cell viability by MTT assay. It is filed as toxicity, cell-based, Cricetulus griseus. Particulars: chinese hamster. Background: Tetrazolium assays rely on reduction of a dye to a coloured formazan, in cell work by metabolically active cells.
Series [4] in a line: Selectivity index, ratio of cytotoxic activity against CHO cells to IC50 for Plasmodium falciparum infected in human type O+ erythrocytes. It is filed as toxicity, cell-based. The note with it: hamster, read-out: Selectivity Index.
The test system of series [5] is Plasmodium falciparum. The series can be described thus: Antimalarial activity against chloroquine-sensitive asexual erythrocyte stage of Plasmodium falciparum NF54 infected in human type O+ erythrocytes assessed as smaller and less complex DNA by flow cytometry. It counts as functional, cell-based.
Series [6] relates to Plasmodium falciparum. The experiment in a line: Antimalarial activity against chloroquine-sensitive asexual erythrocyte stage of Plasmodium falciparum NF54 infected in human type O+ erythrocytes assessed as growth inhibition incubated for 48 hrs by NBT dye based LDH release assay. It is filed as functional, cell-based. The note with it: NF54, 48 h. For orientation: LDH leaks from cells whose membrane has failed.

The test system of series [7] is Plasmodium falciparum. The series can be described thus: Antimalarial activity against chloroquine-sensitive asexual erythrocyte stage of Plasmodium falciparum NF54 infected in human type O+ erythrocytes assessed as pyknosis at 3 times IC50 by light microscopy. It counts as functional, cell-based.
For series [8], the system named is Plasmodium falciparum. The series can be described thus: Antimalarial activity against chloroquine-sensitive asexual erythrocyte stage of Plasmodium falciparum D6 infected in human type O+ erythrocytes assessed as growth inhibition incubated for 48 hrs by NBT dye based LDH release assay. It is filed as functional, cell-based. The note with it: D6, 48 h.
In series [9] the test system is Plasmodium falciparum. The experiment in a line: Inhibition of beta-hematin formation in human erythrocytes infected with chloroquine-sensitive Plasmodium falciparum D6 assessed as increase in intracellular free heme level by SYBR Green I fluorescence assay. On the set-up: scale not given: the % may be the effect or the level left.
The subject of series [10] is Plasmodium falciparum. The series can be described thus: Antimalarial activity against chloroquine-resistant asexual erythrocyte stage of Plasmodium falciparum K1 infected in human type O+ erythrocytes assessed as growth inhibition incubated for 48 hrs by NBT dye based LDH release assay. The note with it: K1, 48 h. It counts as functional, cell-based.
Series [11] concerns Plasmodium falciparum. The experiment in a line: Antimalarial activity against chloroquine-sensitive Plasmodium falciparum D6 infected in human erythrocytes assessed as inhibition of beta-hematin formation by measuring increase in intracellular free heme level. It is filed as functional, cell-based.
The subject of series [12] is Plasmodium falciparum. The experiment in a line: Antimalarial activity against chloroquine-sensitive Plasmodium falciparum D6 infected in human erythrocytes assessed as inhibition of beta-hematin formation by measuring increase in intracellular free heme level at 2.5 times IC50. It is filed as functional, cell-based. On the set-up: scale not given: the % may be the effect or the level left.

Series [13] in a line: Resistance index, ratio of IC50 for chloroquine-resistant asexual erythrocyte stage of Plasmodium falciparum K1 infected in human type O+ erythrocytes to IC50 for chloroquine-sensitive asexual erythrocyte stage of Plasmodium falciparum NF54 infected in human type O+ erythrocytes. It is filed as functional.
The test system of series [14] is Plasmodium falciparum. The series can be described thus: Antimalarial activity against chloroquine-resistant asexual erythrocyte stage of Plasmodium falciparum K1 infected in human type O+ erythrocytes assessed as growth inhibition incubated for 72 hrs by NBT dye based LDH release assay. It is filed as functional, cell-based. The note with it: K1, 72 h.

In the case of `FC(F)(F)Oc1ccc(-c2nc(-c3ccccc3)c(-c3ccccc3)[nH]2)cc1`, the outcome in the series with Plasmodium falciparum [1], in the series with Plasmodium falciparum [5] and in the series on Plasmodium falciparum [7] was Active. In addition, the IC50 in series [2] is > 1000 µM; in the series on Plasmodium falciparum [6], 4.2 µM. Further, the Activity in series [3] stood at 29 µM. The selectivity ratio in [4] came out at 6.9.

`CCOc1cc(-c2nc(-c3ccc(F)cc3)c(-c3ccc(F)cc3)[nH]2)ccc1O`: the IC50 in series [2] was determined as 18.7 µM; with Plasmodium falciparum [8], 2.4 µM.

For `Oc1ccc(-c2nc(-c3ccccc3)c(-c3ccccc3)[nH]2)cc1`, the values for the IC50 (in [2]; in the series on Plasmodium falciparum [6]) were 17.7 µM and > 32 µM, respectively.

Compound `CCN(CC)CCCC(C)Nc1ccnc2cc(Cl)ccc12` (stereo not given) [CHLOROQUINE] came in with an IC50 in series [2] of 315 µM.

Take `c1ccc(-c2nc(-c3ccncc3)[nH]c2-c2ccccc2)cc1`: the IC50 worked out at 25.4 µM in [2] and 10.8 µM with Plasmodium falciparum [8].

For the compound `Oc1ccc(-c2ncc[nH]2)cc1`, the IC50 was 347 µM in [2] and > 20 µM with Plasmodium falciparum [6].

As to `COc1cc(-c2nc(-c3ccccc3)c(-c3ccc(O)cc3)[nH]2)cc(OC)c1O`, the IC50 in series [2] was determined as 2.4 µM; with Plasmodium falciparum [8], 0.7 µM.

`Oc1ccc(-c2nc(-c3ccccc3)c(-c3ccc(Br)cc3)[nH]2)cc1`: the IC50 in series [2] is 5.6 µM; in the series with Plasmodium falciparum [8], 9.06 µM. The Activity with Plasmodium falciparum [9] is 43%.

With `COc1cc(OC)c(-c2nc(-c3ccsc3)c(-c3ccccc3)[nH]2)cc1OC`, the results for the IC50 (in [2]; in the series with Plasmodium falciparum [8]) were 10 µM and 11.7 µM, respectively.

`COc1ccc(-c2nc(-c3cc(OC)cc(OC)c3)[nH]c2-c2ccc(OC)cc2)cc1`: the IC50 stood at 1.8 µM with Plasmodium falciparum [10], 13.8 µM in series [2] and 1.7 µM in the series with Plasmodium falciparum [6]. The Activity entry was “Dose dependent effect” with Plasmodium falciparum [11], > 50% in the series with Plasmodium falciparum [12] and > 240 µM in [3]. Besides, the selectivity ratio in series [4] was > 141. In addition, the “Ratio IC50” value in series [13] came to 1.1.

Take `c1ccc(-c2nc(-c3ccccc3)c(-c3ccccc3)[nH]2)cc1`: the IC50 in series [2] was > 1000 µM; in the series with Plasmodium falciparum [8] it was > 20 µM.

`c1ccc(-c2ncc[nH]2)cc1` [2-PHENYLIMIDAZOLE]: the IC50 in series [2] is > 1000 µM.

Turning to `COc1cc(-c2nc(-c3ccccc3)c(-c3ccccc3)[nH]2)cc(OC)c1OC`, the figures for the IC50 (in series [2]; with Plasmodium falciparum [6]) were 10.9 µM and 3 µM, respectively.

`COc1cc(OC)cc(-c2nc(-c3ccccc3)c(-c3ccccc3)[nH]2)c1`: the results for the Activity entry (in the series on Plasmodium falciparum [11]; with Plasmodium falciparum [12]; in series [3]) were “Dose dependent effect”, > 50% and > 269 µM, respectively. In addition, the figures for the IC50 (in series [2]; in the series with Plasmodium falciparum [6]; in the series with Plasmodium falciparum [14]) were 14.6 µM, 7 µM and 4.7 µM, respectively. In addition, the selectivity ratio in [4] is > 206. In addition, the “Ratio IC50” value in series [13] is 0.7.

As for `COc1cc(-c2nc(-c3ccc4c(c3)S(=O)(=O)c3ccccc3-4)c(-c3ccccc3)[nH]2)cc(OC)c1O`, the IC50 came to 6.2 µM in [2] and 0.61 µM in the series with Plasmodium falciparum [8].

Take `COc1cc(OC)cc(-c2nc(-c3ccccc3)c(-c3ccc(Cl)cc3)[nH]2)c1`: the IC50 worked out at 2.7 µM in the series on Plasmodium falciparum [10], 16.6 µM in [2] and 1.7 µM with Plasmodium falciparum [6]. For the same compound, the “Ratio IC50” value in series [13] amounted to 1.6.

`Brc1ccc2[nH]cc(-c3nc(-c4ccccc4)c(-c4ccccc4)[nH]3)c2c1`: the IC50 amounted to 12.7 µM in series [2] and 2.24 µM in the series on Plasmodium falciparum [8].

In the case of `Nc1ccc(-c2nc(-c3ccccc3)c(-c3ccccc3)[nH]2)cc1`, the IC50 in series [2] amounted to 16.1 µM; in the series on Plasmodium falciparum [6], 42 µM.

Regarding `O=[N+]([O-])c1ccc(-c2nc(-c3ccccc3)c(-c3ccccc3)[nH]2)cc1`, the Activity was > 20 fg in the series with Plasmodium falciparum [11] and 149 µM in series [3]. The half-maximal inhibitory concentration (IC50) in [2] was 19 µM; in the series with Plasmodium falciparum [6], 15 µM. In addition, the selectivity ratio in [4] turned out to be 7.8.

As for `COc1cc(-c2nc(-c3ccccc3)c(-c3ccccc3)[nH]2)cc(OC)c1O`, the values for the IC50 (in the series on Plasmodium falciparum [10]; in series [2]; in the series on Plasmodium falciparum [6]) were 1.9 µM, 10.2 µM and 1.3 µM, respectively. Also, the “Ratio IC50” value in [13] stood at 1.5.

Consider `COc1cc(-c2nc(-c3ccccc3)c(-c3ccc(Br)cc3)[nH]2)cc(OC)c1O`, for which the IC50 in [2] was 12.6 µM; in the series on Plasmodium falciparum [8], 0.31 µM.
